From DBAASP come the findings set out here.

In brackets after ≈: the same amount, converted by molar mass.

Some test systems named below: Candida parapsilosis; Bacillus subtilis DELTA; Escherichia coli UB1005; Staphylococcus aureus 15; Escherichia coli; Listeria innocua; Bacillus cereus C737; Staphylococcus aureus; Bacillus cereus; Streptococcus uberis; Micrococcus luteus; Leuconostoc lactis; Pasteurella multocida; Salmonella sp.; Yersinia enterocolitica; Staphylococcus aureus MR; Candida albicans.
What all share (assay): ≥ marks a high value that may be exact or a test limit, other limits are often not marked, values filed in µg/mL are converted to µM
Assay [1] concerns Escherichia coli DH5alpha.
The test system of assay [2] is Zymomonas mobilis ATCC 10988.
For assay [3], the system named is Pseudomonas aeruginosa PAO1.
The test system of assay [4] is Enterococcus faecalis NCTC 775.
For assay [5], the system named is Enterococcus faecalis NCTC 12201.
The test system of assay [6] is Acinetobacter baumannii ATCC 17978.
In assay [7] the test system is Klebsiella pneumoniae NCTC 13368.
Assay [8] has as its system Staphylococcus aureus ATCC 9144.
The subject of assay [9] is Pseudomonas aeruginosa NCTC 13437.
Assay [10] concerns Staphylococcus epidermidis.
In assay [11] the test system is Candida albicans NCPF 3179.
For assay [12], the system named is Escherichia coli NCTC 12923.
In assay [13] the test system is Escherichia coli NBRC 3972.
In assay [14] the test system is Staphylococcus aureus NBRC 13276.
For assay [15], the system named is Bacillus subtilis NBRC 3009.
Assay [16] deals with Cryptococcus neoformans ATCC 32264.
Assay [17] relates to Candida albicans ATCC 10231.
The subject of assay [18] is Salmonella enterica subsp. enterica serovar Enteritidis.
In assay [19] the test system is Escherichia coli ATCC 25922.
Assay [20] concerns Staphylococcus aureus ATCC 43300.
Assay [21] concerns Staphylococcus aureus ATCC 29213.
Assay [22] concerns Pseudomonas aeruginosa ATCC 27853.
Assay [23] has as its system Staphylococcus aureus ATCC 49476.
Assay [24] deals with Bifidobacterium longum subsp. infantis.
The subject of assay [25] is Staphylococcus aureus MW2.
Assay [26] has as its system Klebsiella aerogenes ATCC 13048.
The subject of assay [27] is Staphylococcus aureus ATCC 29231.
Assay [28] concerns Acinetobacter baumannii ATCC 7978.

What is called MIC is the least concentration at which growth counts as inhibited. Consider `CC[C@H](C)[C@H](NC(=O)[C@H](CCCN=C(N)N)NC(=O)[C@H](CCCCN)NC(=O)[C@H](Cc1ccccc1)NC(C)=O)C(=O)N[C@H](C(=O)N[C@@H](CCC(N)=O)C(=O)N[C@H](C(=O)N[C@H](C(=O)N[C@@H](CCCCN)C(=O)N[C@@H](CCCCN)C(=O)N[C@@H](Cc1ccccc1)C(=O)N[C@@H](CC(C)C)C(=O)N[C@@H](CCCN=C(N)N)C(N)=O)[C@@H](C)CC)[C@@H](C)CC)C(C)C` [FKRIVQIIKKFLR], for which the MIC with Candida parapsilosis is 17.8 µM (≈ 30.7 µg/mL); in assay [1], 29.6 µM (≈ 51.2 µg/mL); in [2], 2.96 µM (≈ 5.12 µg/mL); against Bacillus subtilis DELTA it was 11.8 µM (≈ 20.5 µg/mL); in assay [3], 1.78 µM (≈ 3.07 µg/mL).

In the case of `CC[C@H](C)[C@H](NC(=O)[C@H](CC(=O)O)NC(=O)[C@H](Cc1ccccc1)NC(=O)[C@H](CC(C)C)NC(=O)CN)C(=O)N[C@H](C(=O)N[C@@H](CCCCN)C(=O)N[C@@H](CCCCN)C(=O)N[C@H](C(=O)N[C@H](C(=O)NCC(=O)N[C@@H](C)C(=O)N[C@@H](Cc1ccccc1)C(=O)NCC(=O)N[C@@H](CO)C(=O)N[C@@H](CC(C)C)C(N)=O)C(C)C)C(C)C)C(C)C` [GLFDIVKKVVGAFGSL], the MIC in the assay with Escherichia coli UB1005 is ≥ 38.8 µM; in assay [4], 27.4 µM (≈ 45.2 µg/mL); in the assay with Staphylococcus aureus 15, 19.4 µM (≈ 32 µg/mL); in [5] it was ≥ 38.8 µM; in assay [6] it was 4.85 µM (≈ 8 µg/mL); in [7], ≥ 38.8 µM. The MIC in [8] is 4.85 µM (≈ 8 µg/mL); with Escherichia coli, > 60.6 µM; with Listeria innocua it was 30.3 µM (≈ 50 µg/mL); in assay [9], ≥ 77.6 µM; in assay [10], ≥ 60.6 µM; against Bacillus cereus C737, ≥ 77.6 µM. The MIC against Staphylococcus aureus was 30.3 µM (≈ 50 µg/mL); in [3], > 77.6 µM; in the assay on Bacillus cereus, 30.3 µM (≈ 50 µg/mL); in the assay on Streptococcus uberis, ≥ 60.6 µM; against Micrococcus luteus, ≥ 60.6 µM; in assay [11], 9.7 µM (≈ 16 µg/mL). The MIC is 7.27 µM (≈ 12 µg/mL) against Leuconostoc lactis, 9.7 µM (≈ 16 µg/mL) in assay [12] and ≥ 60.6 µM against Pasteurella multocida.

With `CC[C@H](C)[C@H](NC(=O)[C@H](C)NC(=O)[C@H](CO)NC(=O)[C@@H](NC(=O)[C@H](CC(C)C)NC(=O)CNC(=O)CNC(=O)[C@@H](NC(=O)[C@H](CC(C)C)NC(=O)[C@H](CO)NC(=O)[C@@H]1CCCN1C(=O)[C@H](CC(C)C)NC(=O)[C@H](Cc1ccccc1)NC(=O)[C@H](Cc1ccccc1)NC(=O)[C@@H](N)Cc1ccccc1)[C@@H](C)CC)C(C)C)C(=O)N[C@@H](CCCCN)C(N)=O` [FFFLPSLIGGLVSAIK], the minimal inhibitory concentration (MIC) in assay [13] was ≥ 100 µM; in assay [14], ≥ 35.4 µM; in assay [15] it was 1.8 µM (≈ 3.08 µg/mL).

For `NC(=O)CC[C@H](NC(=O)[C@H](Cc1c[nH]c2ccccc12)NC(=O)[C@H](Cc1c[nH]c2ccccc12)NC(=O)[C@H](CCCN=C(N)N)NC(=O)[C@H](CCCN=C(N)N)NC(=O)[C@H](Cc1c[nH]c2ccccc12)NC(=O)[C@H](CCC(N)=O)NC(=O)[C@@H](N)CCCN=C(N)N)C(=O)N[C@@H](CCCN=C(N)N)C(N)=O` [RQWRRWWQR], the MIC turned out to be 12.5 µM (≈ 18.2 µg/mL) in assay [16]; 17.2 µM (≈ 25 µg/mL) against Salmonella sp.; 8.58 µM (≈ 12.5 µg/mL) with Escherichia coli; 50 µM (≈ 72.8 µg/mL) in assay [17]; 8.58 µM (≈ 12.5 µg/mL) in assay [18]; 17.2 µM (≈ 25 µg/mL) in assay [19]. The values for the minimum inhibitory concentration (MIC) (in [20]; against Yersinia enterocolitica; in assay [21]) were 17.2 µM (≈ 25 µg/mL), 17.2 µM (≈ 25 µg/mL) and 34.3 µM (≈ 50 µg/mL), respectively.

`CC[C@H](C)[C@H](NC(=O)[C@H](C)NC(=O)[C@H](CCCCN)NC(=O)CNC(=O)[C@H](C)NC(=O)[C@H](CO)NC(=O)[C@H](Cc1ccccc1)NC(=O)[C@H](CC(C)C)NC(=O)CNC(=O)CNC(=O)[C@@H](NC(=O)[C@@H](NC(=O)[C@H](Cc1cnc[nH]1)NC(=O)[C@H](Cc1cnc[nH]1)NC(=O)[C@@H](NC(=O)[C@@H](N)Cc1ccccc1)[C@@H](C)CC)[C@@H](C)CC)[C@@H](C)CC)C(=O)N[C@@H](Cc1cnc[nH]1)C(=O)N[C@@H](CO)C(=O)N[C@@H](CC(C)C)C(=O)N[C@H](C(=O)N[C@@H](Cc1cnc[nH]1)C(=O)N[C@@H](CCCN=C(N)N)C(=O)N[C@@H](CCCN=C(N)N)C(=O)N[C@@H](CCCN=C(N)N)C(=O)N[C@@H](CCCN=C(N)N)C(=O)O)[C@@H](C)CC` [FIHHIIGGLFSAGKAIHSLIHRRRR]: the minimum inhibitory concentration (MIC) was determined as 11.1 µM (≈ 32 µg/mL) in the assay with Staphylococcus aureus MR, 88.5 µM (≈ 256 µg/mL) in the assay with Candida albicans, 88.5 µM (≈ 256 µg/mL) in assay [22] and 11.1 µM (≈ 32 µg/mL) in assay [23].

As to `CC[C@H](C)[C@H](NC(=O)[C@H](CCC(N)=O)NC(=O)[C@H](Cc1cnc[nH]1)NC(=O)[C@@H](NC(=O)[C@@H]1CCCN1C(=O)[C@H](CC(N)=O)NC(=O)[C@H](CC(C)C)NC(=O)[C@@H](N)CC(C)C)[C@@H](C)O)C(=O)N[C@@H](Cc1ccc(O)cc1)C(=O)N1CCC[C@H]1C(=O)N[C@H](C(=O)N[C@H](C(=O)N[C@@H](CCC(N)=O)C(=O)N1CCC[C@H]1C(=O)N[C@@H](CC(C)C)C(=O)N[C@@H](C)C(=O)N1CCC[C@H]1C(=O)N[C@H](C(=O)N[C@@H](Cc1cnc[nH]1)C(=O)N[C@@H](CC(N)=O)C(=O)N1CCC[C@H]1C(=O)N[C@H](C(=O)N[C@@H](CO)C(=O)O)[C@@H](C)CC)C(C)C)[C@@H](C)O)C(C)C` [LLNPTHQIYPVTQPLAPVHNPIS], the MIC in the assay on Escherichia coli was > 1180 µM; in [24] it was ≥ 1180 µM; against Staphylococcus aureus, > 1180 µM.

With `CC[C@H](C)[C@H](NC(=O)[C@H](CCCCN)NC(=O)[C@H](Cc1c[nH]c2ccccc12)NC(=O)[C@@H](N)CC(C)C)C(=O)NCC(=O)N[C@@H](CCCCN)C(=O)N[C@@H](CCCCN)C(=O)N[C@H](C(=O)N[C@@H](Cc1c[nH]c2ccccc12)C(=O)N[C@@H](CCCN=C(N)N)C(=O)N[C@H](C(=O)NCC(=O)O)C(C)C)[C@@H](C)CC` [LWKIGKKIWRVG], the minimal inhibitory concentration (MIC) in [25], in assay [26], in [27] and in [28] was ≥ 86.3 µM each time.
